Assay results: patent US6444615B1, “Herbicidal imidazolidinetrione and thioxo-imidazolidinediones” (Dow AgroSciences LLC, priority 2000, dated 2002)

Assays:
Type in all cases: in vivo
Conditions in all cases: 1200 g/ha, scale of 0-100, 0 no activity, 100 total control, about two or four weeks after application
[1] = system: Hairy Beggarticks (Bidens pilosa); assay: Herbicidal pre-emergence test, Hairy Beggarticks
Procedure: (§1) Listed below, a typical planting design for the test, consisting of four monocot weeds, four dicot weeds and one sedge weed. [table] For each compound, evaluation tests were carried out according to the following procedures: For preemergence tests, immediately after planting, the test compound was sprayed directly onto the soil surface. The flats or pots were placed in the greenhouse and then watered. For postemergence tests, seeds were allowed to germinate and grow for 10 to 21 days before application. The test plants were selected for uniformity, size and stage of development. The test plants were then treated with the test compound, returned to the greenhouse and watered. Untreated plants were used as a comparison. The compound to be evaluated was dissolved in an appropriate solvent, usually acetone, or a formulation of the evaluated compounds as described above, was added to the water, and sprayed over the flats or pots using a carrier volume equivalent to 187 or 468 liters per hectare to give a rate of application in grams per hectare (g/ha). About two or four weeks after application of the test compounds, the state of the plant was observed. Each species was evaluated on a scale of 0-100 in which 0 equals no activity and 100 equals total control.

[2] = system: Hairy Beggarticks (Bidens pilosa); assay: Herbicidal post-emergence test, Hairy Beggarticks
Procedure: as §1

[3] = system: Nightshade, (black) (Solanum nigrum); assay: Herbicidal pre-emergence test, Nightshade (black)
Procedure: as §1

[4] = system: Nightshade, (black) (Solanum nigrum); assay: Herbicidal post-emergence test, Nightshade (black)
Procedure: as §1

[5] = system: Smartweed, (pale) (Polygonum lapathifolium); assay: Herbicidal pre-emergence test, Smartweed (pale)
Procedure: as §1

[6] = system: Smartweed, (pale) (Polygonum lapathifolium); assay: Herbicidal post-emergence test, Smartweed (pale)
Procedure: as §1

[7] = system: Velvetleaf (Abutilon theophrasti); assay: Herbicidal pre-emergence test, Velvetleaf
Procedure: as §1

[8] = system: Velvetleaf (Abutilon theophrasti); assay: Herbicidal post-emergence test, Velvetleaf
Procedure: as §1

[9] = system: Barnyardgrass (Echinochloa crusgalli); assay: Herbicidal pre-emergence test, Barnyardgrass
Procedure: as §1

[10] = system: Barnyardgrass (Echinochloa crusgalli); assay: Herbicidal post-emergence test, Barnyardgrass
Procedure: as §1

[11] = system: Crabgrass (large) (Digitaria sanguinalis); assay: Herbicidal pre-emergence test, Crabgrass (large)
Procedure: as §1

[12] = system: Crabgrass (large) (Digitaria sanguinalis); assay: Herbicidal post-emergence test, Crabgrass (large)
Procedure: as §1

[13] = system: Foxtail, (green) (Setaria viridis); assay: Herbicidal pre-emergence test, Foxtail (green)
Procedure: as §1

[14] = system: Foxtail, (green) (Setaria viridis); assay: Herbicidal post-emergence test, Foxtail (green)
Procedure: as §1

[15] = system: Nutsedge, (yellow) (Cyperus esculentus); assay: Herbicidal pre-emergence test, Nutsedge (yellow)
Procedure: as §1

[16] = system: Nutsedge, (yellow) (Cyperus esculentus); assay: Herbicidal post-emergence test, Nutsedge (yellow)
Procedure: as §1

[17] = system: Perennial Ryegrass (Lolium perenne); assay: Herbicidal pre-emergence test, Perennial Ryegrass
Procedure: as §1

[18] = system: Perennial Ryegrass (Lolium perenne); assay: Herbicidal post-emergence test, Perennial Ryegrass
Procedure: as §1

SMILES	Herbicidal Activity BID (pre-emergence) [1]	Herbicidal Activity BID (post-emergence) [2]	Herbicidal Activity NS (pre-emergence) [3]	Herbicidal Activity NS (post-emergence) [4]	Herbicidal Activity SMT (pre-emergence) [5]	Herbicidal Activity SMT (post-emergence) [6]	Herbicidal Activity VEL (pre-emergence) [7]	Herbicidal Activity VEL (post-emergence) [8]	Herbicidal Activity BYG (pre-emergence) [9]	Herbicidal Activity BYG (post-emergence) [10]	Herbicidal Activity CRB (pre-emergence) [11]	Herbicidal Activity CRB (post-emergence) [12]	Herbicidal Activity FOX (pre-emergence) [13]	Herbicidal Activity FOX (post-emergence) [14]	Herbicidal Activity NUT (pre-emergence) [15]	Herbicidal Activity NUT (post-emergence) [16]	Herbicidal Activity RYE (pre-emergence) [17]	Herbicidal Activity RYE (post-emergence) [18]
CCCCN1C(=O)C(=O)N(c2cc(OC3CCCC3)c(Cl)cc2F)C1=O [Compound 10]	0	60	0	100	0	30	0	100	0	40	0	20	0	80	0	30	0	30
C#CCOc1cc(N2C(=O)C(=O)N(C)C2=O)c(F)cc1Cl [Compound 12]	40	95	50	100	0	100	20	100	0	40	0	30	0	40	0/0	0/0	0/0	0/0
C#CCOc1cc(N2C(=O)C(=O)N(CCC)C2=O)c(F)cc1Cl [Compound 13]	100	85	100/100	100/100	100	95	100/100	100/100	95	80	100	30	100	60	0	30	60	30
C#CCOc1cc(N2C(=O)C(=O)N(CCCC)C2=O)c(F)cc1Cl [Compound 14]	0	95	0	100	0	60	0	100	0	30	0/0	0/0	0	40	0/0	0/0	0/0	0/0
C=CCOc1cc(N2C(=O)C(=O)N(C)C2=O)c(F)cc1Cl [Compound 15]	0	85	0	85	0	80	0	90	0	30	0	30	0	30	0/0	0/0	0/0	0/0
C=CCOc1cc(N2C(=O)C(=O)N(CCCC)C2=O)c(F)cc1Cl [Compound 16]	0	95	0	100	0	80	0	100	0/0	0/0	0/0	0/0	0	60	0/0	0/0	0/0	0/0
CCOC(=O)COc1cc(N2C(=O)C(=O)N(C)C2=O)c(F)cc1Cl [Compound 17]	0/0	0/0	30	0	30	0	0/0	0/0	0/0	0/0	0/0	0/0	0/0	0/0	0/0	0/0	30	0
COC(=O)c1cc(N2C(=O)C(=O)N(C(C)C)C2=O)c(F)cc1Cl [Compound 18, 1-(2-fluoro-4-chloro-5-methoxycarbonylphenyl)-3-isopropyl-2,4,5-imidazolidinetrione]	100/100	100/100	100	95	40	95	0	95	0	40	0	30	0	60	0/0	0/0	0/0	0/0
